Results: patent publication US20240207308A1, “METHOD FOR CULTURING DENDRITIC CELLS” (NANOFAENTECH CO., LTD., priority 2021, published 2024)

Columns and labels:
Type in all cases: cell-based, mouse
spleen dendritic cells [1] = assay: Distribution / clustering of cultured spleen dendritic cells by confocal microscope (DIC); details: 200 μg/mL added, dendritic cells 2×10^5/mL, cultured 6 hours
Experimental: Mouse spleen dendritic cells were obtained by adding EDTA-BSS (Balanced Salt Solution) buffer and collagenase solution (DMEM containing 100 units of collagenase type IV, medium containing low glucose) to spleens of female C57BL/6 mice and cutting it with surgical scissors, mixing the same with 6 mL of collagenase treatment solution, and incubating the mixture for 30 minutes. The separated whole spleen tissue was filtered using a 70 μm cell strainer (Falcon), followed by centrifugation at 1800 rpm for 5 minutes thus to separate the cells. Red blood cells were removed by adding red blood cell lysis buffer (Sigma-Aldrich) to the cells and washed twice with RPMI-1640 medium containing 10% fetal bovine serum (FBS). Dendritic cells were reacted with CD11c^+ antibody-bound microbeads and isolated using CD11c Microbeads Ultrapure ([…] Biotec, USA). In FIG. 1, primary dendritic cells isolated from the spleen were dispensed in a 48-well plate and cultured for 24 hours in a cell chamber maintained at 37° C. and 5% CO2, and the extent of clustering in which cells were distributed or gathered into single cells was evaluated. […] The number of single cells and intercellular clusters was measured using ImageJ software (NIH, Bethesda). * indicates statistical significance as P<0.05 or less compared with 0 h. […]

[2] = system: spleen T cells from Balb/c mice; assay: Mixed lymphocyte reaction: proliferation of CFSE-stained allogeneic T cells co-cultured with spleen dendritic cells; details: dendritic cells cultured with the substance and activated with LPS or poly (I:C), co-culture 1:20, 4 days
Experimental: Since the main role of activated dendritic cells is to induce antigen-specific T-cell activation and proliferation according to the stimulatory properties, it was investigated whether self-activated dendrite cells after culturing and dendritic cells activated with LPS after culturing with addition of peptides can induce T cell proliferation by mixed lymphocyte reaction (MLR) test. The spleen dendritic cells isolated from C57B/L6 mice were self-activated for 24 hours, otherwise, when cultured with addition of peptides or fibronectin, the cells were treated with LPS and activated. Spleen T cells from Balb/c mice were isolated using a CD4^+/CD8^+ T cell isolation kit (Miltenyi Biotec, Bergisch-Gladbach, Germany) and MACS column (Miltenyi Biotec), followed by 10 μM CFSE staining (Molecular Probes; Thermo Fisher Scientific Inc., USA). The activated dendritic cells and CFSE-stained T cells were co-cultured at a ratio of 1:20 for 4 days, and the T cell proliferation level was measured as a percentage of cells with decreased CFSE. […] In FIG. 22, the amount of cytokines secreted after co-culture of spleen dendritic cells and T cells for 4 days was measured by ELISA method. […]

[3] = system: bone marrow-derived dendritic cells; assay: CD86 expression of LPS-stimulated bone marrow-derived dendritic cells, flow cytometry; details: 24 hours, LPS 1 μg/mL
Experimental: Compared to spleen dendritic cells, when bone marrow-derived DCs (BMDCs) were stimulated with LPS, effects of the peptide combination and the addition of fibronectin were measured.
Mouse bone marrow-derived dendritic cells were obtained by differentiation from mouse bone marrow precursor cells. The femur and tibia of female C57BL/6 mouse were removed, and bone marrow was isolated using 10 mL of EDTA:BSS (Balanced Salt Solution) buffer containing 2% FBS. Red blood cells were removed with erythrocyte lysis buffer (Sigma-Aldrich), washed with EDTA:BSS buffer, followed by filtering cells using a 70 μm cell strainer (Falcon). Cells at 3×10^6/mL were dispensed in a 6-well plate, and interleukin-4 (20 ng/ml) (JW Creagene, Korea) and GM-CSF (20 ng/ml) (JW Creagene) were added and cultured for 7 days to induce differentiation. Differentiated dendritic cells were reacted with microbeads bound with CD11c antibody (eBioscience), was separated using CD11c Microbeads Ultrapure (MACS, Milteni Biotec), and then cultured.
In FIG. 17, while culturing 2×10^5/mL of bone marrow-derived dendritic cells for 24 hours, the peptides of P1, P2 and P3 were each added at a concentration of 200 μg/mL or fibronectin was added at a concentration of 200 μg/mL. […]

spleen dendritic cells [4] = assay: Viability of spleen dendritic cells by 7-AAD staining; details: 6 hours of culture
Experimental: Dendritic cells are characterized by rapid cell death during culture while self-activation occurs. In addition to the inhibition of self-activation, it was measured whether the viability of dendritic cells is changed. Cell viability was determined by staining of culturing cells with 7-AAD and measuring the number of cells not stained with the above fluorescent substance.

Substance: fibronectin
- cell aggregation (distribution of cells) (spleen dendritic cells [1]): significantly reduced
- T cell proliferation (cells with decreased CFSE) [2]: not inducing T cell proliferation
- CD86 expression by LPS ([3]; BMDC 2×10^5/mL, 200 μg/mL): did not occur
- concentration from which the increase in CD86 expression by LPS was inhibited ([3]; BMDC): ≥ 50 µg/mL
- number of 7-AAD-negative surviving cells (spleen dendritic cells [4]): significantly increased
